# Measurements: US9089572B2, “Inhibitors of p97” (California Institute of Technology, priority 2008, dated 2015)
# Assays:
# [1] = molecular target: wild type murine p97 (Mus musculus, UniProt Q01853); assay: In vitro ATP hydrolysis (malachite green ATPase assay), wild type murine p97; format: biochemical; conditions: 200 nM p97, 20 min preincubation at 23° C., malachite green; read-out: In vitro ATP Hydrolysis Activity IC50 WT-mP97
# Experimental: (§1) Compounds were tested for their ability to inhibit the ATPase activity of purified wild type murine p97 and T532C-Cdc48, a mutant of yeast Cdc48 in which the residue analogous to cysteine 522, threonine 532, was converted to cysteine.
# [2] = test system: HeLa cells; assay: Accumulation of high molecular weight ubiquitin conjugates (anti-ubiquitin immunoblot), HeLa cells; format: cell-based; conditions: 1 h at 37° C.
# Excerpt: (§2) To evaluate whether compound 2 can target p97 activity in cells, we sought to determine whether this compound induces accumulation of high molecular weight ubiquitin conjugates, since it is known that RNAi-mediated knockdown of p97 in mammalian cells has this effect (Wojcik, C. et al. J. Cell Sci. (2004) 117, 281-292). As a positive control for this experiment, the proteasome inhibitor MG132 was used. […] The cells were then harvested, lysed, and centrifuged to generate soluble and insoluble fractions. These fractions were then immunoblotted with anti-ubiquitin antibodies to detect accumulation of high molecular weight conjugates. Blots were also probed with anti-PSTAIRE antibodies as a loading control. […] This effect is particularly pronounced in the insoluble fraction.
# (§3) To evaluate whether compound 8 can target p97 activity in cells, it was determined whether this compound induces accumulation of high molecular weight ubiquitin conjugates, since it is known that RNAi-mediated knockdown of p97 in mammalian cells has this effect (Wojcik, C. et al. J. Cell Sci. (2004) 117, 281-292). The proteasome inhibitor bortezomib (velcade) was employed as a positive control for this experiment. HeLa (FIG. 25) or RPMI8226 (FIG. 26) cells were treated with Velcade, compound 8, or a combination thereof for 1 h at 37° C. The cells were then harvested and cell lysates were immunoblotted with anti-ubiquitin antibodies to detect accumulation of high molecular weight conjugates. Blots were also probed with anti-PSTAIRE antibodies as a loading control.
# [3] = test system: RPMI8226 cells; assay: Accumulation of high molecular weight ubiquitin conjugates (anti-ubiquitin immunoblot), RPMI8226 cells; format: cell-based; conditions: 1 h at 37° C.
# Excerpt: as §2, §3
# [4] = test system: Ub-G76V-GFP/HeLa cells; assay: Degradation of pre-accumulated Ub-G76V-GFP (cycloheximide chase after MG132 washout); format: cell-based; conditions: up to 10 μM
# Experimental: To evaluate this possibility, an assay was developed to determine the rate of degradation of pre-accumulated Ub-G76V-GFP molecules. […] Cells were then washed with PBS three times remove the MG132. Cells were then refreshed by adding DMEM containing cycloheximide (50 μg/mL; to block production of more Ub-G76V-GFP) and test compounds (0˜10 μM) were added into cells. Eight 96-well plates were prepared and one of the plates was imaged at 25, 50, 70, 100, 110, 125, 145, or 170 min after washing with PBS three times. After washing out MG132, degradation of pre-accumulated Ub-G76V-GFP appears to follow pseudo-first order reaction. Rate constant (K; 1/min) can be determined from the slope of plotting Ln (Fold Accumulation) versus Time (min) (see FIG. 17 and FIG. 18).
# Ub-G76V-GFP/HeLa cells were treated with MG132 (2 μM) for 1 h and washed with PBS three times. DMEM containing cycloheximide (50 μg/mL) and compound 8 (0-10 μM) was added into cells. Eight 96-well plates were prepared and one of the plates was imaged at 25, 50, 70, 100, 110, 125, 145, or 170 min after washing with PBS three times.
# [5] = test system: HeLa; assay: MTT cell growth assay, HeLa; format: cell-based; conditions: Homo sapiens, 48 or 72 h, read-out: Cell line inhibition of growth GI50 HeLa
# Experimental: (§4) To probe further the effect of compound 2 and related compounds 1, 3, 5, 6 and 7, various concentrations of these compounds were added to 13 different cell lines and incubated for 48 or 72 h. An MTT assay was then performed to evaluate cell growth and survival.
# [6] = test system: MCF7; assay: MTT cell growth assay, MCF7; format: cell-based; conditions: Homo sapiens, 48 or 72 h, read-out: Cell line inhibition of growth GI50 MCF7
# Experimental: as §4
# [7] = test system: MDAMB-231; assay: MTT cell growth assay, MDAMB-231; format: cell-based; conditions: Homo sapiens, MDA-MB-231, 48 or 72 h, read-out: Cell line inhibition of growth GI50 MDAMB-231
# Experimental: as §4
# [8] = test system: 293; assay: MTT cell growth assay, 293; format: cell-based; conditions: Homo sapiens, HEK293, 48 or 72 h, read-out: Cell line inhibition of growth GI50 293
# Experimental: as §4
# [9] = test system: RPMI8226; assay: MTT cell growth assay, RPMI8226; format: cell-based; conditions: Homo sapiens, RPMI-8226, 48 or 72 h, read-out: Cell line inhibition of growth GI50 RPMI8226
# Experimental: as §4
# [10] = test system: RL; assay: MTT cell growth assay, RL; format: cell-based; conditions: Homo sapiens, 48 or 72 h, read-out: Cell line inhibition of growth GI50 RL
# Experimental: as §4
# [11] = test system: Molt4; assay: MTT cell growth assay, Molt4; format: cell-based; conditions: Homo sapiens, MOLT-4, 48 or 72 h, read-out: Cell line inhibition of growth GI50 Molt4
# Experimental: as §4
# [12] = test system: CCRF-CEM; assay: MTT cell growth assay, CCRF-CEM; format: cell-based; conditions: Homo sapiens, 48 or 72 h, read-out: Cell line inhibition of growth GI50 CCRF-CEM
# Experimental: as §4
# [13] = test system: HTC116 WT; assay: MTT cell growth assay, HTC116 WT; format: cell-based; conditions: 48 or 72 h, read-out: Cell line inhibition of growth GI50 HTC116 WT
# Experimental: as §4
# [14] = test system: HCT116 p53−/−; assay: MTT cell growth assay, HCT116 p53−/−; format: cell-based; conditions: Homo sapiens, HCT-116, 48 or 72 h, read-out: Cell line inhibition of growth GI50 HCT116 p53−/−
# Experimental: as §4
# [15] = test system: LNCaP; assay: MTT cell growth assay, LNCaP; format: cell-based; conditions: Homo sapiens, 48 or 72 h, read-out: Cell line inhibition of growth GI50 LNCaP
# Experimental: as §4
# [16] = test system: DU145; assay: MTT cell growth assay, DU145; format: cell-based; conditions: Homo sapiens, DU-145, 48 or 72 h, read-out: Cell line inhibition of growth GI50 DU145
# Experimental: as §4
# [17] = test system: PC3; assay: MTT cell growth assay, PC3; format: cell-based; conditions: Homo sapiens, PC-3, 48 or 72 h, read-out: Cell line inhibition of growth GI50 PC3
# Experimental: as §4
# [18] = test system: 13 different cell lines; assay: MTT cell growth assay, summary across 13 different cell lines; format: cell-based; conditions: vs compound 2, 13 cell lines
# Experimental: as §4
# Data for the assay with MCF-7 cells and HeLa cells is shown in FIG. 21 and FIG. 22, respectively. […] Thus, compound 2 blocks p97-dependent processes in cells and also blocks the proliferation of cancer cell lines, illustrating its potential utility as an anti-proliferative drug to treat cancer.
# [19] = molecular target: T532C-Cdc48 (Saccharomyces cerevisiae, UniProt P25694, T532C); assay: In vitro ATP hydrolysis (malachite green ATPase assay), T532C-Cdc48; format: biochemical, yeast
# Experimental: as §1
# To determine whether cysteine 522 is necessary for inhibition of p97 by compound 2, a mutant of p97 was constructed in which cysteine 522 was converted to either alanine (C522A-mp97) or threonine (C522T-mp97). The IC50 values of compound 2 were measured the against various enzymes during a 20-minute preincubation (see Table 2). Mutation of cysteine 522 in p97 to either alanine or threonine decreased sensitivity to compound 2 by greater than 100-fold. On the other hand, yeast Cdc48, which normally is quite resistant to compound 2, became nearly 30-fold more sensitive to the compound upon introduction of a cysteine in place of threonine 532.
# Sequence of wild type murine p97 (Q01853 whole entry): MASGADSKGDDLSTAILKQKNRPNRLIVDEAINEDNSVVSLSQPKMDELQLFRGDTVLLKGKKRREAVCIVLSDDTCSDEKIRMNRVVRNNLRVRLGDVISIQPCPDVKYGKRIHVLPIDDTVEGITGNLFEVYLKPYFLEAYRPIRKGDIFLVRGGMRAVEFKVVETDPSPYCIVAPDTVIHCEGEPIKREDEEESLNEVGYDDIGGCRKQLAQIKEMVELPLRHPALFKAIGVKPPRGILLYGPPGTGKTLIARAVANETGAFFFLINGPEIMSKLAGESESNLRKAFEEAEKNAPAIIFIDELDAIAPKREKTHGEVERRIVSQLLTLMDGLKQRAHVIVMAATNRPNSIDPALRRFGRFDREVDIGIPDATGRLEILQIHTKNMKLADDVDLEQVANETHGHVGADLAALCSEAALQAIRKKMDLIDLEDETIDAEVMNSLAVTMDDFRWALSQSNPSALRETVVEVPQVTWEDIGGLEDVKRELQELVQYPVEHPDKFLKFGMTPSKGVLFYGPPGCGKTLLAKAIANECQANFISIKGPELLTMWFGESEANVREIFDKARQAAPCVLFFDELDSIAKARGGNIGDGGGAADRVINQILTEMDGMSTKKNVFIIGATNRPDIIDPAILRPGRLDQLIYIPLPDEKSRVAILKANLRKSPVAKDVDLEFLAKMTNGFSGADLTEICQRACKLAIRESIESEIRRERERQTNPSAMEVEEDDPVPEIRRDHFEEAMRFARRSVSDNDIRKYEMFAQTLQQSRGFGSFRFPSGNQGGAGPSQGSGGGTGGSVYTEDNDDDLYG
# Sequence of T532C-Cdc48 (P25694 whole entry T532C): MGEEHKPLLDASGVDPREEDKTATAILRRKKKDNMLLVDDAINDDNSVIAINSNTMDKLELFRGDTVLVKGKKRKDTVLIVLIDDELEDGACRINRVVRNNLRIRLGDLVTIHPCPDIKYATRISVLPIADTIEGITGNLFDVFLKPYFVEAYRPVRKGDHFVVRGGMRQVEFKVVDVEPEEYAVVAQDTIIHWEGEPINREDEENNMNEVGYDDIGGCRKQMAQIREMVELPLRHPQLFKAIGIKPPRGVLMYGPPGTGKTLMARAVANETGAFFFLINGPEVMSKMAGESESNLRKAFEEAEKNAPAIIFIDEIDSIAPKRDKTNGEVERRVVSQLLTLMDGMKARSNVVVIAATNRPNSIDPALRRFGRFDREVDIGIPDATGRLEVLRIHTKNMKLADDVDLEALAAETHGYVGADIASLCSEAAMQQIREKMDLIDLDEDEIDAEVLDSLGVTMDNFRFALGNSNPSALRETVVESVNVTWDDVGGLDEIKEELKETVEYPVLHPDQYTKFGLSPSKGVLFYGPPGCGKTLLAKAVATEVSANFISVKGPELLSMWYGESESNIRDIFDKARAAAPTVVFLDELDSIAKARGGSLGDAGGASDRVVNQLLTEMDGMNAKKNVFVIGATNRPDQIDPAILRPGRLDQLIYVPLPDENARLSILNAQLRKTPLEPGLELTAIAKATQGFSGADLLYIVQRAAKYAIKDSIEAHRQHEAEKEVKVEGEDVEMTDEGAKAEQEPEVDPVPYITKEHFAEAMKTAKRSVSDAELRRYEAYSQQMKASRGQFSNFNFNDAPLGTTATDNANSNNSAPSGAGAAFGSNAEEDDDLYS
Structure (SMILES),IC50 [1],"accumulation of high molecular weight ubiquitin conjugates, HeLa cells [2]","accumulation of high molecular weight ubiquitin conjugates, RPMI8226 cells [3]",effect on the decay of Ub-G76V-GFP [4],GI50 [5],GI50 [6],GI50 [7],GI50 [8],GI50 [9],GI50 [10],GI50 [11],GI50 [12],GI50 [13],GI50 [14],GI50 [15],GI50 [16],GI50 [17],GI50 higher than that of compound 2 across the same cell lines [18],IC50 [19]
CC(C)(C)n1nc(-c2ccccc2)c2c(N)ncnc21 [Compound 1],> 100 µM,not,not,no effect,2 ± 1 µM,4 ± 2 µM,19 ± 8 µM,92 ± 14 µM,1.1 ± 0.7 µM,21 ± 10 µM,7.4 ± 4.7 µM,15 ± 5 µM,10 ± 2 µM,12 ± 4 µM,38 ± 8 µM,18 ± 4 µM,11 ± 1 µM,3 to 18 fold,
C=CC(=O)N(C(=O)C=C)c1ncnc2c1c(-c1ccccc1)nn2C(C)(C)C [Compound 3],1.1 ± 0.7 µM,,,,5.3 ± 2.5 µM,6.6 ± 2.2 µM,24 ± 10 µM,,1.2 ± 0.6 µM,5 ± 2 µM,2.7 ± 0.8 µM,7.2 ± 4.3 µM,5.1 ± 2 µM,4 ± 0.9 µM,4.6 ± 1.1 µM,8.2 ± 2.4 µM,3.3 ± 0.9 µM,,26 ± 6 µM
CC(C)(C)n1nc(-c2ccccc2)c2c(NC(=O)CCl)ncnc21 [Compound 4],4.5 ± 3.5 µM,,,,,,,,,,,,19 ± 6 µM,20 ± 5 µM,23 ± 4 µM,40 ± 10 µM,6.3 ± 0.6 µM,,35 ± 8 µM
CC(C)(C)n1nc(-c2ccc3ccccc3c2)c2c(N)ncnc21 [Compound 5],> 100 µM,,,,1 ± 0.3 µM,2.3 ± 0.4 µM,10 ± 1.8 µM,,9.8 ± 1.8 µM,0.7 ± 0.2 µM,0.6 ± 0.2 µM,3.9 ± 1.3 µM,4.3 ± 1.8 µM,12 ± 3 µM,7.6 ± 1.7 µM,3.5 ± 0.6 µM,5.9 ± 0.5 µM,,
